Laboratory results published in US9133225B2, “Dual targeting anticancer agents” (priority 2013, dated 2015).

Key:
A549 cells [1] = assay: MTT cytotoxicity assay, A549
Source text: (§1) (a) Dulbecco's Modified Eagle Medium (DMEM), Dulbecco's phosphate buffered saline (DPBS), fetal bovine serum (FBS) and 0.25% trypsin/EDTA solutions were purchased from Cellgro (Manassas, Va.). Penicillin-streptomycin solutions were purchased from Mediatech (Manassas, Va.). (b) HeLa (CCL-2TM) cells, A549, A2870, A2870/CP70, MCF-7, PC-3, and MRC-5 cells were purchased from American Type Culture Collection (ATCC, Manassas, Va., USA). (c) HCT116 cells were kindly donated by Laura Trudel (MIT). HeLa, A549, MCF-7, and MRC-5 cells were cultured using DMEM supplemented with 10% FBS and 1% penicillin-streptomycin. A2870, A2870/CP70, and PC-3 cells were cultured in RPMI supplemented with 10% FBS and 1% penicillin-streptomycin. HCT116 cells were cultured in McCoy's supplemented with 10% FBS and 1% penicillin-streptomycin. All cell-culture experiments were performed in the aforementioned media in an incubator operating at 37° C. and in the presence of a humidified atmosphere containing 5.0% CO2. Cells were harvested using a 0.25% trypsin/EDTA solution.
(§2) The cytotoxicity of the compounds was assessed by means of the MTT assay (MTT=3-(4,5-dimethyl-2-thiazolyl)-2,5-diphenyl-2H-tetrazolium bromide). Typically, on day one, ˜1×10^3 cells were seeded into 96-well plates in 100 μL media per well. […] The optical density for each well at 550 nm was measured with a microplate reader.

HeLa cells = assay: MTT cytotoxicity assay, HeLa
Source text: as §1, §2

[2] = system: A2780 ovarian carcinoma cells; assay: MTT cytotoxicity assay, A2780
Source text: as §1, §2

[3] = system: A2780/CP70 cells (CisPt resistant); assay: MTT cytotoxicity assay, A2780/CP70
Source text: as §1, §2

PC-3 cells = assay: MTT cytotoxicity assay, PC-3
Source text: as §1
(§3) The cytotoxicity of the compounds was assessed by means of the MTT assay (MTT=3-(4,5-dimethyl-2-thiazolyl)-2,5-diphenyl-2H-tetrazolium bromide). Typically, on day one, ˜1×10^3 cells were seeded into 96-well plates in 100 μL media per well. The last row of the plate was left empty as a control for background absorption. The cells were allowed to grow for 24 h in the incubator at 37° C. On day two, a series of drug dilutions in growth media were prepared immediately prior to cell treatment. The media in the wells of the 96 plates were replaced with 100 μL of growth media containing appropriate drug concentrations. The cells were treated for 48 h at 37° C. in the incubator. On day four, a stock solution of MTT (5 mg/mL in PBS buffer) was diluted with media so that, when 100 μL of the media was added to each well, 10 μL of MTT stock was applied. […] The optical density for each well at 550 nm was measured with a microplate reader.

HCT116 cells = assay: MTT cytotoxicity assay, HCT116
Source text: as §1, §3

MCF-7 cells = assay: MTT cytotoxicity assay, MCF-7
Source text: as §1, §3

[4] = system: MRC-5 non-tumorigenic lung fibroblast cells; assay: in vitro
Source text: as §1
(§4) The cytotoxicity of the compounds was assessed by means of the MTT assay (MTT=3-(4,5-dimethyl-2-thiazolyl)-2,5-diphenyl-2H-tetrazolium bromide). Typically, on day one, ˜1×10^3 cells were seeded into 96-well plates in 100 μL media per well. The last row of the plate was left empty as a control for background absorption. The cells were allowed to grow for 24 h in the incubator at 37° C. On day two, a series of drug dilutions in growth media were prepared immediately prior to cell treatment. The media in the wells of the 96 plates were replaced with 100 μL of growth media containing appropriate drug concentrations. The cells were treated for 48 h at 37° C. in the incubator. On day four, a stock solution of MTT (5 mg/mL in PBS buffer) was diluted with media so that, when 100 μL of the media was added to each well, 10 μL of MTT stock was applied. The cells were incubated for 2 h and then all the media was replaced with 100 μL of DMSO to dissolve the purple MTT-formazan crystals. The optical density for each well at 550 nm was measured with a microplate reader.

Bcl-xL-Bax interactions = target: T1, Bcl-xL-Bax interactions (Homo sapiens, UniProt Q07817); assay: Co-immunoprecipitation of Bcl-xL, probed for Bax; type: cell-based; settings: A549 cells, respective IC50 values, 48 h
T1 construct: endogenous in cells; host or cells: A549
T1 sequence (Q07817 whole entry): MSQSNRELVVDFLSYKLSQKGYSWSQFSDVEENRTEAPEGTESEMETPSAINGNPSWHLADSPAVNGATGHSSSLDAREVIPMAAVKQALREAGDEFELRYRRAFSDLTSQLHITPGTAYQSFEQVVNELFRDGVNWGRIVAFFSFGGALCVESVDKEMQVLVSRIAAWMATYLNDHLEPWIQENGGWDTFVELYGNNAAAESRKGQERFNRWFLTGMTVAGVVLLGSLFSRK
Method: (§5) α-TOS is known to disrupt Bcl-xL-Bax interactions, activate Bax, and thus mediate mitochondrial centered apoptotic cell death. Co-immunoprecipitation studies were carried out to determine whether the Pt(IV)-α-TOS conjugates could behave in a similar manner. […] Additional immunoblotting studies were carried to determine the effect of Pt(IV)(α-TOS)(OEt) treatment on transcription. […] Overall Pt(IV)(α-TOS)(OEt) was able to (1) downregulate Bcl-xL expression and (2) inhibit the interaction of Bcl-xL with Bax, a prerequisite for mitochondrial dysfunction. The former is inherent to cisplatin but not α-TOS, and the latter was inherent to α-TOS but not cisplatin.
A549 cells (5×10^5 cells) were incubated with test compound for 48 h at 37° C. […] The resultant cell lysate was treated with protein A-agarose bead slurry (50 μL) and centrifuged to remove proteins that bind non-specifically. Anti Bcl-XL antibody (Cell Signalling Technology) was added to the lysate and incubated for 2 h at room temperature. Protein A-agarose bead slurry (50 μL) was added and the mixture was incubated at 4° C. overnight. Centrifugation allowed separation of the immunocomplex, which was washed with cold RIPA buffer (3×500 μL). The immunocomplex was then suspended in SDS-PAGE loading buffer (50 μL) and incubated at 95° C. for 10 min. The solution containing the immunocomplex was isolated by centrifugation and then analysed for Bax content using the immunoblotting analysis protocol described above.

in vitro = settings: human
Source text: as §1, §4

Bcl-xL = assay: Immunoblotting analysis of Bcl-xL expression; type: cell-based; settings: A549 cells
Method: as §5
A549 cells (5×10^5 cells) were incubated with test compound for 48 h at 37° C. Cells were washed with PBS, scraped into SDS-PAGE loading buffer (64 mM Tris-HCl (pH6.8)/9.6% glycerol/2% SDS/5% β-mercaptoethanol/0.01% Bromophenol Blue) and incubated at 95° C. for 10 min. Whole cell lysates were resolved by 4-20% sodium dodecylsulphate polyacylamide gel electrophoresis (SDS-PAGE; 200 V for 1 h) followed by electro transfer to polyvinylidene difluoride membrane, PVDF (350 mA for 1 h). Membranes were blocked in 5% (w/v) non-fat milk in PBST (PBS/0.1% Tween 20) and incubated with the appropriate primary antibodies (Cell Signalling Technology and Santa Cruz). After incubation with horseradish peroxidase-conjugated secondary antibodies (Cell Signalling Technology), immune complexes were detected with the ECL detection reagent (BioRad) and analysed using an Alpha Innotech ChemiImager™ 5500 fitted with a chemiluminescence filter.

[5] = system: A2780 ovarian cancer cells; assay: PI-annexin-V dual staining apoptosis assay; type: cell-based; settings: 10 μM for 48 hours
A549 cells [6] = assay: JC-1 mitochondrial membrane potential assay; type: cell-based; settings: cisplatin or Pt(IV)(α-TOS)(OEt) at 20 μM, 4 hours
Method: To investigate the effect of Pt(IV)(α-TOS)(OEt) on mitochondria, changes in the mitochondrial membrane potential were assessed by the JC-1 assay. JC-1 (5,5′,6,6′-tetrachloro-1,1′3,3′-tetraethylbenzimidazolylcarbocyanine iodide) is a positively charged lipophilic dye, which accumulates in the mitochondria of healthy cells as red-emitting aggregates. When the mitochondrial membrane is compromised, JC-1 de-aggregates into monomeric forms that emit green fluorescence. […] These findings were confirmed using flow cytometry. A large population of untreated and Pt(IV)(α-TOS)(OEt)-treated A549 cells were examined.
In order to monitor the cell cycle, flow cytometry studies were carried out. A549 cells were incubated with and without the test compounds for 24 and 48 h at 37° C. Cells were harvested from adherent cultures by trypsinization and combined with all detached cells from the incubation medium to assess total cell viability. Following centrifugation at 1000 rpm for 5 min, cells were washed with PBS and then fixed with 70% ethanol in PBS. Fixed cells were collected by centrifugation at 2500 rpm for 3 min, washed with PBS and centrifuged as before. Cellular pellets were re-suspended in 50 μg/mL propidium iodide (Sigma) in PBS for nucleic acids staining and treated with 100 μg/mL RNaseA (Sigma). DNA content was measured on a FACSCalibur-HTS flow cytometer (BD Biosciences) using laser excitation at 488 nm and 20,000 events per sample were acquired. Cell cycle profiles were analysed using the ModFit software. For the apoptosis experiments, the Annexin V-FITC Early Apoptosis Detection Kit (Cell Signaling Technology) was used. […] The samples were kept on ice prior to being read on the FACSCalibur-HTS flow cytometer (BD Biosciences) (20,000 events per sample were acquired). Cell populations were analysed using the FlowJo software (Tree Star). […] The cells were incubated for 30 min, harvested, and analysed by using the FACSCalibur-HTS flow cytometer (BD Biosciences) (20,000 events per sample were acquired). […] Cell populations were analysed using the FlowJo software (Tree Star).

all cell lines = assay: MTT cytotoxicity assay, across the cell lines; type: cell-based; settings: all cell lines; MTT; read-out: IC50 against all cell lines
Source text: as §1, §2

| SMILES | IC50 (PC-3 cells) | IC50 (HCT116 cells) | IC50 (MCF-7 cells) | IC50 [4] | Bcl-xL-Bax interaction (Bax associated to the Bcl-xL immunoprecipitate) (Bcl-xL-Bax interactions) | Bcl-xL expression (Bcl-xL) | also measured |
| --- | --- | --- | --- | --- | --- | --- | --- |
| Cc1c(C)c2c(c(C)c1OC(=O)CCC(=O)O)CC[C@@](C)(CCC[C@H](C)CCC[C@H](C)CCCC(C)C)O2 [α-TOS, α-tocopherol succinate, reference compound] | 37 µM | 31.2 µM | 40.5 µM | 28.5 µM | markedly lower than the untreated control | – | IC50 (A549 cells [1]): 26.9 µM; IC50 (HeLa cells): 25.1 µM; IC50 [2]: 13.8 µM; IC50 [3]: 21.7 µM |
| Cc1c(C)c2c(c(C)c1OC(=O)CCC(=O)[O][Pt]([NH2])([NH2])([Cl])([Cl])[O]C(=O)CCC(=O)Oc1c(C)c(C)c3c(c1C)CCC(C)(CCCC(C)CCCC(C)CCCC(C)C)O3)CCC(C)(CCCC(C)CCCC(C)CCCC(C)C)O2 (stereo not drawn) [Pt(IV)(α-TOS)2] | – | – | – | – | less affected | A similar trend was observed | IC50 at 48 h (in vitro): 80.5 µM |
| N.N.[Cl][Pt][Cl] [cisplatin, reference compound] | – | – | – | – | less affected | A similar trend was observed | cells displaying apoptotic properties [5]: 10% |
| N#CC(C#N)=NNc1cccc(Cl)c1 [CCCP, carbonyl cyanide m-chlorophenyl hydrazone, reference compound] | – | – | – | – | – | – | JC-1 fluorescence (mitochondrial membrane disruption), microscopy (A549 cells [6]): increased green fluorescence and diminished red fluorescence |
| CC(=O)[O][Pt]([NH2])([NH2])([Cl])([Cl])[O]C(C)=O [Pt(IV)(OAc)2] | > 100 µM | > 100 µM | > 100 µM | > 100 µM | less affected | A similar trend was observed | IC50 (all cell lines): > 100 µM |
